Results from PubChem BioAssay AID248 (DTP/NCI, 2004).
Where “and” joins values, the source holds several entries; their conditions need not be identical. Equal entries are not always repeated. Inconclusive results and toxic doses are left out. Peptide text beside a SMILES is read from it.

Tested on: L1210 leukemia ip in BDF1 mice, survival T/C
Test: NCI In Vivo Anticancer Drug Screen. Data for tumor model L1210 Leukemia (intraperitoneal) in B6D2F1 (BDF1) mice
Conditions: endpoint: mean survival time, higher = longer survival
Summary of the method: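 Antitumor effect is assessed in tumor-bearing animals. Survival in the compound arm is compared with a vehicle-dosed control arm and expressed as their quotient.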

[1] = dose: 100.0 mg/kg/injection, schedule: Q01DX001 (ip), vehicle: saline with Tween-80
[2] = dose: 100.0 mg/kg/injection, schedule: Q01DX009 (ip), vehicle: saline with Tween-80
[3] = dose: 100.0 mg/kg/injection, schedule: Q04DX003 (ip), vehicle: saline with Tween-80
[4] = dose: 200.0 mg/kg/injection, schedule: Q01DX001 (ip), vehicle: saline with Tween-80
[5] = dose: 200.0 mg/kg/injection, schedule: Q01DX009 (ip), vehicle: saline with Tween-80
[6] = dose: 200.0 mg/kg/injection, schedule: Q04DX003 (ip), vehicle: saline with Tween-80
[7] = dose: 400.0 mg/kg/injection, schedule: Q01DX001 (ip), vehicle: saline with Tween-80
[8] = dose: 400.0 mg/kg/injection, schedule: Q01DX009 (ip), vehicle: saline with Tween-80
[9] = dose: 400.0 mg/kg/injection, schedule: Q04DX003 (ip), vehicle: saline with Tween-80
[10] = dose: 100.0 mg/kg/injection, schedule: Q04DX003 (ip), vehicle: Klucel (hydroxypropylcellulose) (HPC)
[11] = dose: 200.0 mg/kg/injection, schedule: Q04DX003 (ip), vehicle: Klucel (hydroxypropylcellulose) (HPC)
[12] = dose: 400.0 mg/kg/injection, schedule: Q04DX003 (ip), vehicle: Klucel (hydroxypropylcellulose) (HPC)
[13] = dose: 100.0 mg/kg/injection, schedule: Q04DX002 (ip), vehicle: Klucel (hydroxypropylcellulose) (HPC)
[14] = dose: 200.0 mg/kg/injection, schedule: Q04DX002 (ip), vehicle: Klucel (hydroxypropylcellulose) (HPC)
[15] = dose: 400.0 mg/kg/injection, schedule: Q04DX002 (ip), vehicle: Klucel (hydroxypropylcellulose) (HPC)
[16] = dose: 100.0 mg/kg/injection, schedule: Q01DX001 (ip), vehicle: saline
[17] = dose: 200.0 mg/kg/injection, schedule: Q01DX001 (ip), vehicle: saline
[18] = dose: 400.0 mg/kg/injection, schedule: Q01DX001 (ip), vehicle: saline
[19] = dose: 100.0 mg/kg/injection, schedule: Q04DX003 (ip), vehicle: saline
[20] = dose: 200.0 mg/kg/injection, schedule: Q04DX003 (ip), vehicle: saline
[21] = dose: 400.0 mg/kg/injection, schedule: Q04DX003 (ip), vehicle: saline
[22] = dose: 50.0 mg/kg/injection, schedule: Q01DX009 (ip), vehicle: other
[23] = dose: 100.0 mg/kg/injection, schedule: Q01DX009 (ip), vehicle: other
[24] = dose: 200.0 mg/kg/injection, schedule: Q01DX009 (ip), vehicle: other
[25] = dose: 100.0 mg/kg/injection, schedule: Q01DX009 (ip), vehicle: Klucel (hydroxypropylcellulose) (HPC)
[26] = dose: 200.0 mg/kg/injection, schedule: Q01DX009 (ip), vehicle: Klucel (hydroxypropylcellulose) (HPC)
[27] = dose: 400.0 mg/kg/injection, schedule: Q01DX009 (ip), vehicle: Klucel (hydroxypropylcellulose) (HPC)

In the case of `Cc1ccccc1C(O)c1cnc(C)n1Cc1ccccc1` (stereo not given), the T/C (dose: 50.0 mg/kg/injection, schedule: Q04DX002 (ip), vehicle: saline with Tween-80) is reported as 105 % of control and 88 % of control, the T/C [1] is reported as 102 % of control and the T/C [2] is reported as 100 % of control and 87 % of control. The T/C [3] was 92 % of control, the T/C [4] was 90 % of control and the T/C [5] was 103 % of control. For the same compound, the T/C [6] was 92 % of control, the T/C [7] was 93 % of control and the T/C [8] was 102 % of control. The T/C [9] was 97 % of control.

With `Oc1ccc(-c2ccc(O)c(O)c2)cc1O` the T/C (dose: 75.0 mg/kg/injection, schedule: Q01DX001 (ip), vehicle: carboxymethylcellulose (CMC)) was 100 % of control and the T/C (dose: 150.0 mg/kg/injection, schedule: Q01DX001 (ip), vehicle: carboxymethylcellulose (CMC)) was 95 % of control.

For `CCCCNc1nc(SC)nc2nc[nH]c12`, the T/C [10] was 95 % of control, the T/C [11] was 96 % of control and the T/C [12] was 91 % of control.

With `Cc1cc(NC(=O)NCc2ccc([N+](=O)[O-])cc2)ccc1S(=O)(=O)F` the T/C [3] was 100 % of control, the T/C [6] was 95 % of control and the T/C [9] was 92 % of control.

In the case of `CSc1nc(Cl)c(-c2ccccc2)c(N2CC2)n1`, the T/C (dose: 25.0 mg/kg/injection, schedule: Q01DX Z (ip), vehicle: methylcellulose (MC)) is reported as 98 % of control and the T/C (dose: 50.0 mg/kg/injection, schedule: Q01DX Z (ip), vehicle: methylcellulose (MC)) is reported as 90 % of control.

`O=C(O)c1ccccc1N=Cc1ccc[nH]1` was tested, and the T/C [13] was 115 % of control, the T/C [14] was 100 % of control and the T/C [15] was 96 % of control.

In the case of `NNc1ccc(CC(=O)O)cc1`, the T/C [16] is reported as 98 % of control, the T/C [17] is reported as 93 % of control and the T/C [18] is reported as 98 % of control.

For `O=C(O)CSC(CC(=O)O)C(F)(F)C(F)(F)C(F)(F)F` (stereo not given), the T/C (dose: 100.0 mg/kg/injection, schedule: Q01DX009 (ip), vehicle: saline) was 100 % of control, the T/C [19] was 96 % of control and the T/C (dose: 200.0 mg/kg/injection, schedule: Q01DX009 (ip), vehicle: saline) was 97 % of control. The T/C [20] was 98 % of control, the T/C (dose: 400.0 mg/kg/injection, schedule: Q01DX009 (ip), vehicle: saline) was 104 % of control and the T/C [21] was 93 % of control.

With `CCc1nc(N)nc(N)c1-c1ccc([N+](=O)[O-])cc1O` the T/C [10] was 92 % of control, the T/C [11] was 93 % of control and the T/C [12] was 89 % of control.

With `O=C1C(N2CCOCC2)=C(c2ccccc2)c2ccccc21` the T/C (dose: 7.3 mg/kg/injection, schedule: Q01DX009 (ip), vehicle: other) was 94 % of control and 103 % of control, the T/C (dose: 11.0 mg/kg/injection, schedule: Q01DX009 (ip), vehicle: other) was 96 % of control and 100 % of control and the T/C (dose: 12.5 mg/kg/injection, schedule: Q01DX009 (ip), vehicle: other) was 350 % of control. For the same compound, the T/C (dose: 16.5 mg/kg/injection, schedule: Q01DX009 (ip), vehicle: other) was 96 % of control and 100 % of control, the T/C (dose: 37.5 mg/kg/injection, schedule: Q01DX009 (ip), vehicle: other) was 96 % of control and 101 % of control and the T/C [22] was 98 % of control. The T/C [23] was 88 % of control and the T/C [24] was 93 % of control.

For `OCCCc1ccccc1O`, the T/C (dose: 50.0 mg/kg/injection, schedule: Q01DX001 (ip), vehicle: saline) was 102 % of control, the T/C [16] was 102 % of control and the T/C [17] was 94 % of control. For the same compound, the T/C [18] was 91 % of control.

`CCCCCCCCCCCCCCCCOc1ccc(S(=O)(=O)Nc2cc(C(=O)OC)cc(C(=O)OC)c2)cc1[N+](=O)[O-]` was tested, and the T/C [25] was 98 % of control, the T/C [10] was 93 % of control and the T/C [26] was 97 % of control. The T/C [11] was 95 % of control, the T/C [27] was 92 % of control and the T/C [12] was 91 % of control.

`O=C(/C=C(/CC(=O)c1ccccc1)C(=O)c1ccccc1)c1ccccc1` was tested, and the T/C [10] was 103 % of control, the T/C [11] was 95 % of control and the T/C [12] was 101 % of control.

With `CCOC(=O)CC(C)(N)NC(N)=O` (stereo not given) the T/C [2] was 98 % of control, the T/C [19] was 104 % of control and the T/C [5] was 93 % of control. For the same compound, the T/C [20] was 106 % of control, the T/C [8] was 90 % of control and the T/C [21] was 106 % of control.

For `CCOC(=O)c1[nH]c(C)c(C)c1-c1ccccc1`, the T/C [10] was 109 % of control and the T/C [11] was 94 % of control.

In the case of `Nc1cn(C2OC(CO)C(O)C2O)c(=O)[nH]c1=O` (stereo not given), the T/C [16] is reported as 97 % of control, the T/C [17] is reported as 124 % of control and the T/C [18] is reported as 100 % of control.

`C=C(C)C1Cc2c(ccc3c(=O)c4c(oc23)COc2cc(OC)c(OC)cc2-4)O1` (stereo not given) was tested, and the T/C [25] was 90 % of control, the T/C [26] was 93 % of control and the T/C [27] was 95 % of control.

With `CCOC(=O)CCC(NC(=O)Cc1ccc(NC(=O)C(F)(F)F)cc1)C(=O)OCC` (stereo not given) the T/C [25] was 105 % of control, the T/C [26] was 96 % of control and the T/C [27] was 98 % of control.

With `c1cnc(N2CCCCC2)cn1` the T/C [16] was 94 % of control, the T/C [17] was 96 % of control and the T/C [18] was 102 % of control.

For `NC(CSS(=O)(=O)O)=NC1CCCCC1`, the T/C (dose: 6.25 mg/kg/injection, schedule: Q04DX002 (ip), vehicle: saline with Tween-80) was 120 % of control, the T/C (dose: 12.5 mg/kg/injection, schedule: Q04DX002 (ip), vehicle: saline with Tween-80) was 113 % of control and the T/C (dose: 25.0 mg/kg/injection, schedule: Q04DX002 (ip), vehicle: saline with Tween-80) was 98 % of control.

In the case of `CCCCCCCCCCCCCc1nc(N)nc(N2CCOCC2)n1`, the T/C [13] is reported as 92 % of control, the T/C [14] is reported as 95 % of control and the T/C [15] is reported as 92 % of control.

With `CS(=O)CC(N)C(=O)O` (stereo not given) the T/C [16] was 97 % of control, the T/C [17] was 102 % of control and the T/C [18] was 103 % of control.

In the case of `COc1ccc(C)cc1NC(=O)Nc1cc(Cl)ccc1C`, the T/C [1] is reported as 93 % of control, the T/C [2] is reported as 95 % of control and 112 % of control and the T/C (dose: 100.0 mg/kg/injection, schedule: Q04DX002 (ip), vehicle: saline with Tween-80) is reported as 102 % of control and 87 % of control. The T/C [3] was 90 % of control, the T/C [4] was 93 % of control and the T/C [5] was 102 % of control and 88 % of control. For the same compound, the T/C (dose: 200.0 mg/kg/injection, schedule: Q04DX002 (ip), vehicle: saline with Tween-80) was 87 % of control, the T/C [6] was 101 % of control and the T/C [8] was 93 % of control and 91 % of control. For the same compound, the T/C (dose: 400.0 mg/kg/injection, schedule: Q04DX002 (ip), vehicle: saline with Tween-80) was 95 % of control and 87 % of control and the T/C [9] was 94 % of control.

For `CC(O)C(NC(=O)C(N)CCCN=C(N)N)C(=O)NC(Cc1ccccc1)C(=O)O` (stereo not drawn) (H-Arg-Thr-Phe-OH; configuration not given here), the T/C (dose: 18.75 mg/kg/injection, schedule: Q04DX002 (ip), vehicle: saline with Tween-80) was 101 % of control, the T/C (dose: 37.5 mg/kg/injection, schedule: Q04DX002 (ip), vehicle: saline with Tween-80) was 97 % of control and the T/C (dose: 75.0 mg/kg/injection, schedule: Q04DX002 (ip), vehicle: saline with Tween-80) was 93 % of control. For the same compound, the T/C (dose: 150.0 mg/kg/injection, schedule: Q04DX002 (ip), vehicle: saline with Tween-80) was 97 % of control.

With `Nc1nc(N=Nc2ccc(O)cc2)cc(=O)[nH]1` the T/C [22] was 102 % of control, the T/C [23] was 107 % of control and the T/C (dose: 100.0 mg/kg/injection, schedule: Q04DX002 (ip), vehicle: other) was 105 % of control. For the same compound, the T/C [24] was 94 % of control, the T/C (dose: 200.0 mg/kg/injection, schedule: Q04DX002 (ip), vehicle: other) was 105 % of control and the T/C (dose: 400.0 mg/kg/injection, schedule: Q01DX009 (ip), vehicle: other) was 103 % of control. The T/C (dose: 400.0 mg/kg/injection, schedule: Q04DX002 (ip), vehicle: other) was 99 % of control.

With `CC(/C=C/c1ccccc1Cl)=N\NC(=O)c1ccncc1` the T/C [1] was 95 % of control, the T/C [4] was 95 % of control and the T/C [7] was 90 % of control.
